For data set [1], the system named is P388. Put plainly: In vivo antitumor activity against mouse P388 cells at 100 ug/kg relative to control. In kind it is functional.
For another data set, the system named is Gambusia affinis. Nature of the data set: Toxicity against Gambusia affinis at 30 to 60 ug/L within 24 hrs. Conditions: in vivo. It counts as organism-based.
For data set [2], the system named is P388. Nature of the data set: In vivo antitumor activity against mouse P388 cells at 300 ug/kg relative to control. In kind it is functional.

Molecules are shown by their SMILES.

The term T/C denotes the result in the treated group divided by that in the control group, in per cent. `C=C1C(=O)O[C@H]2C[C@@H](C)[C@@H]3C=CC(=O)[C@@]3(C)[C@H](OC(C)=O)[C@H]12` [LINIFOLIN A] returned a T/C in the data set on P388 [1] of 107%. Besides, in the data set with Gambusia affinis, the Activity entry is reported as “Toxic”.

For `C=C(C)[C@@]12C[C@@H](COC(=O)c3ccccc3)[C@@]34OC5(O[C@@H]1[C@@H]3[C@@H]1O[C@]1(CO)[C@@H](O)[C@@]1(O)[C@H]4[C@H]([C@H](C)[C@@H]1OC(=O)c1ccc(OC(C)=O)cc1)[C@H](C)CCCCCC[C@H]5O)O2` [SIMPLEXIMACRIN], the Activity entry with Gambusia affinis was “Toxic”.

For `C=C(C)[C@@]12C[C@@H](C)[C@@]34OC5(CCCCCCC[C@@H](C)[C@H]6[C@H](C)[C@H](OC(=O)c7ccccc7)[C@@](O)([C@H](O)[C@@]7(CO)O[C@H]7[C@H]3[C@H]1O5)[C@@H]64)O2` [PIMELEA FACTOR P3], in the data set on P388 [2], the T/C is reported as 164%. In the data set with Gambusia affinis, the Activity result is on record as “Toxic”.

For `C=C(C)[C@@]12C[C@@H](COC(=O)c3ccccc3)[C@@]34OC5(O[C@@H]1[C@@H]3[C@@H]1O[C@]1(CO)[C@@H](O)[C@@]1(O)[C@H]4[C@H]([C@H](C)[C@@H]1OC(=O)c1ccccc1)[C@H](C)CCCCCC[C@H]5O)O2` [GNIDIMACRIN], the Activity result with Gambusia affinis is “Toxic”.

In the case of `C=C(C)[C@]12C[C@@H](C)[C@@]34OC5(CCCCCCC[C@H](C)[C@H]6[C@H](C)[C@H](OC(=O)c7ccccc7)[C@@](O)([C@H](O)[C@@]7(CO)O[C@H]7[C@H]3[C@H]1O5)[C@@H]64)O2` [PIMELEA FACTOR P2], the Activity result with Gambusia affinis is recorded as “Toxic”.

Take `C=C(C)[C@]12OC34CCCCCCC[C@@H](C)[C@H]5[C@H](C)[C@H](OC(=O)c6ccccc6)[C@@]6(O)[C@H](O)[C@@]7(CO)O[C@H]7[C@@H]([C@H]1O3)[C@](O4)([C@H](C)[C@H]2OC(C)=O)[C@H]56` [LINIMACRIN D]: in the data set on P388 [2], the T/C worked out at 132%. Also, in the data set with Gambusia affinis, the Activity entry is “Toxic”.

Regarding `C=C(C)[C@@]12C[C@@H](C)[C@@]34OC5(O[C@@H]1[C@@H]3[C@@H]1O[C@]1(CO)[C@@H](O)[C@@]1(O)[C@H]4[C@H]([C@H](C)[C@@H]1OC(=O)c1ccccc1)[C@@H](C)CCCCCC[C@H]5O)O2` [LINIMACRIN C], in the data set with Gambusia affinis, the Activity entry is “Toxic”.

As for `C=C(C)[C@@]12C[C@@H](C)[C@@]34OC5(O[C@@H]1[C@@H]3[C@@H]1O[C@]1(CO)[C@@H](O)[C@@]1(O)[C@H]4[C@H]([C@H](C)[C@@H]1OC(=O)c1ccccc1)[C@H](C)CCCCCC[C@H]5O)O2` [KRAUSSIANIN], the Activity result in the data set on Gambusia affinis was “Toxic”.

For the origin of these results see ChEMBL document CHEMBL1151654, “Antineoplastic and piscicidal 1-alkyldaphnane orthoesters from Pimelea species” (J Nat Prod, 1985).
